The values that follow come from article PMC4791960 (European journal of medicinal chemistry, 2011).

For one assay, the target named is α4β2 nAChR (Rattus norvegicus, UniProt P09483+P12390). The experiment in a line: [3H]-epibatidine competition binding on rat cortical membranes. The settings on record: tested at 5 μM, ± standard error.
The next assay concerns the target α7 nAChR (Rattus norvegicus, UniProt Q05941). Nature of the assay: [3H]-methyllycaconitine competition binding on rat hippocampal membranes. To be noted: for Ki: read-out: α7 Ki, [3H]-methyllycaconitine, rat hippocampal membranes; for interaction with α7 nAChR: in words.
Assay [1] has as its target α3β4 ganglion-type nicotinic receptors (Homo sapiens, UniProt P30926+P32297). Nature of the assay: [3H]-epibatidine competition binding on SH-SY5Y cellular membranes.
Assay [2] addresses α1βγδ muscle-type nicotinic receptors (Homo sapiens, UniProt P02708+P07510+Q07001). Nature of the assay: [3H]-epibatidine competition binding on TE-671 cellular membranes. The settings on record: tested at 5 μM, ± standard error.
A further assay concerns AChBP from Ac. Nature of the assay: Dissociation constants with AChBP from Aplysia californica. The class given is binding. To be noted: compound 2 vs compound 3 (OH to OCH3).
A further assay deals with AChBP from Bt. Nature of the assay: Dissociation constants with AChBP from Bulinus truncatus. The settings on record: compound 2 vs compound 3 (OH to OCH3). The class given is binding.
A further assay has as its target rat α7 nAChR (Rattus norvegicus, UniProt Q05941). Nature of the assay: Patch-clamp electrophysiology in rat α7 nAChR. The class given is cell-based.

In the case of “5-(2-Furyl)spiro[1,3-dihydro-1,4-diazepine-2,3′-quinuclidine]-7-ol [Compound 2g]”, the “α4β2 percent inhibition of control radioligand binding” value (shortened to “α4β2 percent inhibition”) at α4β2 nAChR amounted to 14 ± 3%. Further, the Ki at α7 nAChR was determined as 150 nM. In the same order, the values of “5-(2-Methoxyphenyl)spiro[1,3-dihydro-1,4-diazepine-2,3′-quinuclidine]-7-ol [Compound 2b]” are 7 ± 1% and 110 nM. For “5-(4-Methoxyphenyl)spiro[1,3-dihydro-1,4-diazepine-2,3′-quinuclidine]-7-ol [Compound 2d]”, in assay [1] (tested at 5 μM, [3H]-epibatidine, SH-SY5Y cellular membranes, ± standard error), the “α3β4 percent inhibition of control radioligand binding” value came to 63 ± 0.4%. Also, the “α1βγδ percent inhibition of control radioligand binding” value in assay [2] turned out to be 38 ± 5%. Further, the “α4β2 percent inhibition” value at α4β2 nAChR is recorded as 42 ± 14%. Besides, on α7 nAChR, the Ki is 42 nM.

Consider “5-Phenylspiro[1,3-dihydro-1,4-diazepine-2,3′-quinuclidine]-7-ol [Compound 2a]”, for which the “α4β2 percent inhibition” value on α4β2 nAChR was 15 ± 1%. For the same compound, the Ki at α7 nAChR was 140 nM.

Take `COc1ccc(/C=C2\CCCN=C2c2cccnc2)c(OC)c1` [Compound 2, 3-(2,4-dimethoxybenzilidene)-anabaseine]: in the assay on AChBP from Ac, the “loss in affinity vs compound 3, Ac” value turned out to be 110 fold. For the same compound, in the assay with AChBP from Bt, the “decrease in Kd value (affinity) vs compound 3, Bt” value was 2.5 fold.

Take `C1=NCC2(CN3CCC2CC3)NC=C1c1ccccc1` (stereo not shown) [Compound 2h, 6-phenylspiro[1,3-dihydro-1,4-diazepine-2,3′-quinuclidine]]: the “interaction with α7 nAChR” value at α7 nAChR is “do not demonstrate any interaction”. For `O=C1NCC2(CN3CCC2CC3)NC(=O)C1c1ccccc1` (stereo not shown) [Compound 2i, 6-Phenylspiro[1,4-diazepane-2,3′-quinuclidine]-5,7-dione], on α7 nAChR, the “interaction with α7 nAChR” value is listed as “do not demonstrate any interaction”. `COc1cc(O)ccc1/C=C1\CCCN=C1c1cccnc1` [Compound 3, 2-Methoxy-4-OH benzylidene anabaseine, reference compound]: the inhibition at 5 µM in assay [1] (read-out: α3β4 percent inhibition of control radioligand binding) came to 75 ± 1%. Regarding `Oc1c(C2=NC3(CN2)CN2CCC3CC2)oc2ccccc12` (stereo not shown) [Compound 3a, 2-(3-Hydroxybenzofuran-2-yl)spiro[1,5-dihydroimidazole-4,3′-quinuclidine]], on rat α7 nAChR, it took 600 ± 500 nM to reach a half-maximal effect (EC50) and the Emax amounted to 53 ± 4.4%.

Turning to `c1ccc(C2=NC3(CN2)CN2CCC3CC2)cc1` (stereo not shown) [Compound 3c], the “interaction with α7 nAChR” value at α7 nAChR is on record as “do not demonstrate any interaction”.

Consider `c1ccc2oc(C3=NC4(CN3)CN3CCC4CC3)cc2c1` (stereo not shown) [Compound 3e, 2-Spiro[1,5-dihydroimidazole-4,3′-quinuclidine]-2-ylbenzo [b]furan], for which the “interaction with α7 nAChR” value at α7 nAChR was “do not demonstrate any interaction”.
